This is an account of results in patent USRE46943E1, “Radioprotector compounds and methods” (PETER MACCALLUM CANCER INSTITUTE, priority 2010, dated 2018).

Molecules are shown by their SMILES.

The test system of the data set is mice. The experiment in a line: Radioprotection of mouse jejunum, subcutaneous administration: local reaction at injection site. In kind it is in vivo. To be noted: subcutaneous solutions in polyethylene glycol (MW 400), similar experiments with the jejunum model. The procedure: 2-Hydroxypropyl-β-cyclodextrin (HPCD, Sigma-Aldrich, typical MW 1540) vehicle solution was prepared by dissolving 3.6 g of HPCD in 9.3 mL of phosphate buffered saline (PBS) resulting in 30% v/w solution. […] The concentration of M2PB was measured following appropriate dilution in 45% MeOH 0.1% TFA using an extinction coefficient […] at 345 nm. The M2PB/HPCD stock was diluted to 8.75 mg/mL (22 mM) in HPCD vehicle to produce the final M2PB/HPCD formulation, which was injected subcutaneously into mice, between the shoulder blades (scruff of the neck) at a volume of 8×10^−3 ml/g body weight.
The subsequent irradiation and analysis was as described for Example 56.

In the case of `Cc1cc(N(C)C)ccc1-c1nc2ccc(-c3nc4ccc(N5CCN(C)CC5)cc4[nH]3)cc2[nH]1` [methylproamine, reference compound], the “local reaction or toxicity at the site of subcutaneous injection” value is “had been observed”.
